Data taken from patent US20050147565A1, “Pharmaceutical compositions for the treatment of asthma” (Schering Corporation, priority 2001, published 2005).

How the values were obtained:
[1] = Andersen Cascade Impactor particle size distribution of the emitted dose of the metered dose inhaler; type: physicochemical; conditions: Formoterol/Mometasone 6/50 μg/actuation inhaler
Source text: The formulations of the present invention were further analyzed using an Andersen Cascade Impactor as described in Examples 6 and 7. The Andersen Cascade Impactor is widely used for measuring the particle size distribution of airborne particles and more specifically pharmaceutical aerosols. The eight stage Andersen Impactor separates the sample into nine size intervals when used with a backup filter after the last impaction stage. In FIGS. 1 to 4, this corresponds Stage 0 of particles having a particle size less than 10 μm to a particle size of 0.65-0.43 μm in stage 8, with the final stage corresponding to the filter for particles less than 0.43 μm. The measurement of the particle size at the “throat” in the figures corresponds to the entry port of the Impactor. The fine particle fraction is defined as the percentage of particles having a particle size of less than 4.7 μm. The fine particle dose is defined as the amount in μg per dose that is less than 4.7 μm in size in each actuation. The μg/shot is the total amount of emitted drug product that exits the metered dose inhaler upon actuation. The determination of the particle size distribution of the emitted dose of the formulation using an Andersen Cascade Impactor is known to one of skill in the art.
A formulation containing 6 μg of formoterol fumarate and 50 μg of mometasone furoate using HFA 227 in the absence of a bulking agent or carrier in a metered dose inhaler was analyzed by an Andersen Cascade Impactor to 5 analyze the amount of active drug ingredients and the particle size of the actives exiting the inhaler over time. […] The metered dose for both actives over time was also within acceptable limits (62.9 to 63.3 for mometasone and 6.6 to 6.5 for formoterol at the 4 month point). […]
A formulation containing 6 μg of formoterol fumarate and 50 μg of mometasone furoate using HFA 134a with lactose as a bulking agent in a metered dose inhaler was analyzed by an Andersen Cascade Impactor to analyze the amount of active drug ingredients and the particle size of the actives exiting the inhaler over time. […] Additionally, the metered dose actually delivered was also maintained over time within acceptable limits (64.1 to 63.7 for mometasone, 6.9 to 6.6 for formoterol). The fine particle fraction for both mometasone and formoterol was maintained within acceptable limits.

[2] = Drug Content Uniformity (DCU) through the life of a 120 dose MDI; type: physicochemical; conditions: Formoterol/Mometasone 6/50 μg/actuation inhaler
Procedure: The Drug Content Uniformity (DCU) of the inhaler was measured throughout the life of a 120 dose MDI to ascertain whether there was a consistency of dose of the active ingredients throughout the life of the product. Five canisters of each formulation (HFA 227 or HFA 134a) were analyzed and each canister delivered 120 actuations of medication and the amount of actives exiting the inhaler per actuation was measured at varying actuations, e.g., numbers 11, 12, 13, 14, (beginning) 59, 60, 61, 62 (middle) and 117, 118, 119 and 120 (end). Means were determined for the beginning, middle and end actuations, and an overall mean was determined and set forth in Examples 9 and 10 above.

[3] = cited from earlier work
[4] = Percent change in fine particle size after temperature cycling; type: physicochemical
Source text: A finer particle size distribution of the mometasone furoate improves the fine particle fraction of the formulation exiting the inhaler upon actuation of the metered dose inhaler. […] The aerodynamic particle size distribution is well within the range of a typical efficacious topical lung medication, e.g., greater than 50% of the particles are less than 4.7 microns.

[5] = cited from earlier work; remark: listed apart in the source
[6] = HFA 134a, low bulking agent (lactose), 1 Month, 4 C./40 C.
[7] = HFA 134a, low bulking agent (lactose), 1 Month, 40 C./75%
[8] = HFA 134a, low bulking agent (lactose), 3 Month, 4 C./40 C.
[9] = HFA 134a, low bulking agent (lactose), 4 Month, 25 C./60%
[10] = HFA 134a, low bulking agent (lactose), 4 Month, 40 C./75%
[11] = HFA 134a, low bulking agent (lactose), Initial
[12] = HFA 227, without bulking agent, 1 Month, 4 C./40 C.
[13] = HFA 227, without bulking agent, 1 Month, 40 C./75%
[14] = HFA 227, without bulking agent, 3 Month, 4 C./40 C.
[15] = HFA 227, without bulking agent, 4 Month, 25 C./60%
[16] = HFA 227, without bulking agent, 4 Month, 40 C./75%
[17] = HFA 227, without bulking agent, Initial
[18] = HFA 134a, low bulking agent, 1 Month, 4 C./40 C.
[19] = HFA 134a, low bulking agent, 1 Month, 40 C./75%
[20] = HFA 134a, low bulking agent, Initial
[21] = HFA 227, no bulking agent, 1 Month, 4 C./40 C.
[22] = HFA 227, no bulking agent, 1 Month, 40 C./75%
[23] = HFA 227, no bulking agent, Initial

SMILES: COc1ccc(CC(C)NCC(O)c2ccc(O)c(NC=O)c2)cc1.COc1ccc(CC(C)NCC(O)c2ccc(O)c(NC=O)c2)cc1.O.O.O=C(O)/C=C/C(=O)O (racemic) [Formoterol Fumarate, (±)2-hydroxy-5-[(1RS)-1-hydroxy-2-[[(1RS)-2-(4-methoxyphenyly-1methylethyl]-amino]ethyl]formanilide fumarate dihydrate]
- Fine Particle Dose (μg/shot) [1, 6]: 2.0 μg/shot
- Fine Particle Fraction % [1, 6]: 38.0%
- MMAD (microns) [1, 6]: 3.1 microns
- Fine Particle Dose (μg/shot) [1, 7]: 2.1 μg/shot
- Fine Particle Fraction % [1, 7]: 41.3%
- MMAD (microns) [1, 7]: 2.9 microns
- Fine Particle Dose (μg/shot) [1, 8]: 2.2 μg/shot
- Fine Particle Fraction % [1, 8]: 40.2%
- MMAD (microns) [1, 8]: 3.2 microns
- Fine Particle Dose (μg/shot) [1, 9]: 2.3 μg/shot
- Fine Particle Fraction % [1, 9]: 43.6%
- MMAD (microns) [1, 9]: 3.0 microns
- Fine Particle Dose (μg/shot) [1, 10]: 2.1 μg/shot
- Fine Particle Fraction % [1, 10]: 40.3%
- MMAD (microns) [1, 10]: 3.1 microns
- Fine Particle Dose (μg/shot) [1, 11]: 2.4 μg/shot
- Fine Particle Fraction % [1, 11]: 42.5%
- MMAD (microns) [1, 11]: 2.9 microns
- Fine Particle Dose (μg/shot) [1, 12]: 2.2 μg/shot
- Fine Particle Fraction % [1, 12]: 39.0%
- MMAD (microns) [1, 12]: 3.3 microns
- μg/shot (metered dose) [1, 12]: 6.3 μg/shot
- Fine Particle Dose (μg/shot) [1, 13]: 2.4 μg/shot
- Fine Particle Fraction % [1, 13]: 41.1%
- MMAD (microns) [1, 13]: 3.2 microns
- μg/shot (metered dose) [1, 13]: 6.6 μg/shot
- Fine Particle Dose (μg/shot) [1, 14]: 1.9 μg/shot
- Fine Particle Fraction % [1, 14]: 35.2%
- MMAD (microns) [1, 14]: 3.3 microns
- μg/shot (metered dose) [1, 14]: 6.3 μg/shot
- Fine Particle Dose (μg/shot) [1, 15]: 2.6 μg/shot
- Fine Particle Fraction % [1, 15]: 47.3%
- MMAD (microns) [1, 15]: 3.2 microns
- μg/shot (metered dose) [1, 15]: 6.5 μg/shot
- Fine Particle Dose (μg/shot) [1, 16]: 2.2 μg/shot
- Fine Particle Fraction % [1, 16]: 40.1%
- MMAD (microns) [1, 16]: 3.4 microns
- μg/shot (metered dose) [1, 16]: 6.5 μg/shot
- Fine Particle Dose (μg/shot) [1, 17]: 2.6 μg/shot
- Fine Particle Fraction % [1, 17]: 46.3%
- MMAD (microns) [1, 17]: 3.2 microns
- μg/shot (metered dose) [1, 17]: 6.6 μg/shot
- Overall Mean μg/shot [2, 18]: 5.6 μg/shot
- Overall Mean μg/shot [2, 19]: 6.0 μg/shot
- Overall Mean μg/shot [2, 20]: 6.2 μg/shot
- Overall Mean μg/shot [2, 21]: 5.5 μg/shot
- Overall Mean μg/shot [2, 22]: 5.7 μg/shot
- Overall Mean μg/shot [2, 23]: 5.7 μg/shot
- solubility in acetone [3]: practically insoluble
- solubility in diethyl ether ([3]; diethyl ether): practically insoluble
- solubility in ethanol [3]: sparingly soluble
- solubility in ethyl acetate ([3]; ethyl acetate): practically insoluble
- solubility in glacial acetic acid ([3]; glacial acetic acid): freely soluble
- solubility in isopropanol [3]: sparingly soluble
- solubility in methanol [3]: soluble
- solubility in water [3]: slightly soluble

SMILES: C[C@@H]1C[C@H]2[C@@H]3CCC4=CC(=O)C=C[C@]4(C)[C@@]3(Cl)[C@@H](O)C[C@]2(C)[C@@]1(OC(=O)c1ccco1)C(=O)CCl [Mometasone Furoate, 9,21-Dichloro-11(beta), 17-dihydroxy-16(alpha)-methylpregna-1,4-diene-3,20-dione 17-(2 furoate)]
- Fine Particle Dose (μg/shot) [1, 6]: 10.6 μg/shot
- Fine Particle Fraction % [1, 6]: 20.1%
- MMAD (microns) [1, 6]: 4.3 microns
- μg/shot (metered dose) [1, 6]: 65.0 μg/shot
- Fine Particle Dose (μg/shot) [1, 7]: 10.1 μg/shot
- Fine Particle Fraction % [1, 7]: 20.1%
- MMAD (microns) [1, 7]: 4.3 microns
- μg/shot (metered dose) [1, 7]: 62.2 μg/shot
- Fine Particle Dose (μg/shot) [1, 8]: 10.0 μg/shot
- Fine Particle Fraction % [1, 8]: 20.0%
- MMAD (microns) [1, 8]: 4.6 microns
- μg/shot (metered dose) [1, 8]: 62.6 μg/shot
- Fine Particle Dose (μg/shot) [1, 9]: 11.4 μg/shot
- Fine Particle Fraction % [1, 9]: 22.6%
- MMAD (microns) [1, 9]: 4.3 microns
- μg/shot (metered dose) [1, 9]: 62.1 μg/shot
- Fine Particle Dose (μg/shot) [1, 10]: 8.8 μg/shot
- Fine Particle Fraction % [1, 10]: 17.7%
- MMAD (microns) [1, 10]: 4.5 microns
- μg/shot (metered dose) [1, 10]: 63.7 μg/shot
- Fine Particle Dose (μg/shot) [1, 11]: 13.6 μg/shot
- Fine Particle Fraction % [1, 11]: 25.7%
- MMAD (microns) [1, 11]: 3.9 microns
- μg/shot (metered dose) [1, 11]: 64.1 μg/shot
- Fine Particle Dose (μg/shot) [1, 12]: 9.2 μg/shot
- Fine Particle Fraction % [1, 12]: 16.4%
- MMAD (microns) [1, 12]: 5.0 microns
- μg/shot (metered dose) [1, 12]: 62.6 μg/shot
- Fine Particle Dose (μg/shot) [1, 13]: 13.9 μg/shot
- Fine Particle Fraction % [1, 13]: 25.3%
- MMAD (microns) [1, 13]: 4.1 microns
- μg/shot (metered dose) [1, 13]: 62.4 μg/shot
- Fine Particle Dose (μg/shot) [1, 14]: 5.3 μg/shot
- Fine Particle Fraction % [1, 14]: 9.8%
- MMAD (microns) [1, 14]: 6.3 microns
- μg/shot (metered dose) [1, 14]: 60.5 μg/shot
- Fine Particle Dose (μg/shot) [1, 15]: 16.1 μg/shot
- Fine Particle Fraction % [1, 15]: 30.4%
- MMAD (microns) [1, 15]: 4.2 microns
- μg/shot (metered dose) [1, 15]: 61.5 μg/shot
- Fine Particle Dose (μg/shot) [1, 16]: 10.4 μg/shot
- Fine Particle Fraction % [1, 16]: 18.6%
- MMAD (microns) [1, 16]: 4.6 microns
- μg/shot (metered dose) [1, 16]: 63.3 μg/shot
- Fine Particle Dose (μg/shot) [1, 17]: 19.7 μg/shot
- Fine Particle Fraction % [1, 17]: 36.5%
- MMAD (microns) [1, 17]: 3.7 microns
- μg/shot (metered dose) [1, 17]: 62.9 μg/shot
- Overall Mean μg/shot [2, 18]: 55.7 μg/shot
- Overall Mean μg/shot [2, 19]: 57.0 μg/shot
- Overall Mean μg/shot [2, 20]: 59.1 μg/shot
- Overall Mean μg/shot [2, 21]: 55.6 μg/shot
- Overall Mean μg/shot [2, 22]: 54.9 μg/shot
- Overall Mean μg/shot [2, 23]: 54.7 μg/shot
- percent change in fine particle size ([4]; grade of mometasone used in Example 6 (coarse), two weeks of temperature cycling at −10° C. and 40° C.): about 50%
- percent change in fine particle size ([4]; similar mdi using mometasone furoate alone, finer grade of mometasone furoate, same cycling conditions (two weeks, −10° C. and 40° C.)): ≤ 15%
- solubility in acetone [3]: soluble
- solubility in chloroform ([3]; chloroform): soluble
- solubility in ethanol [3]: slightly soluble
- solubility in isopropanol [3]: slightly soluble
- solubility in methanol [3]: slightly soluble
- solubility in tetrahydrofuran ([3]; tetrahydrofuran): freely soluble
- solubility in water [3]: practically insoluble
- partition coefficient between octanol and water [5]: greater than 5000
